Assay results: patent US12036234B2, “Heparin conjugated to collagen-binding peptides for targeting to biological and synthetic tissues” (Northwestern University, priority 2017, dated 2024)
“Also recorded” adds a separate entry of the source. Ends that are not written are not given here.

Assays:
fibronectin = experiment: Peptide binding to ECM protein coated plates (streptavidin-594 fluorescence); design: species or system human; settings: biotinylated peptide
Protocol: (§1) Peptide and ECM Binding Specificity. Collagens I, II, III, and IV, fibronectin, laminin, and Matrigel were coated onto 96-well black plates at 10 μg/cm^2. Biotinylated CBP or CBPi were added to coated plates at 0, 1, 10, 100, and 1000 μM overnight at 4° C., after which the plates were washed three times with PBS. Fluorescent streptavidin-594 (4 μg/mL) was added to each well and incubated at room temperature for 2 h, then thoroughly washed with PBS. The plates were read with a fluorescence microplate reader for fluorescence intensity (Ex 591 nm, Em 614 nm). All data were normalized to the background fluorescence intensity of Streptavidin-594 alone directed at each coated protein.

collagen II = experiment: as above; design: species or system chicken; settings: biotinylated peptide
Protocol: as §1

Matrigel = experiment: as above; settings: 1000 μM biotinylated peptide
Protocol: as §1

laminin = target: T1, laminin (Mus musculus, UniProt P02468+P02469+P19137); experiment: as above; settings: 1000 μM biotinylated peptide
T1 construct: purchased Sigma-Aldrich
Protocol: as §1

collagen III = target: T2, collagen III (Homo sapiens, UniProt P02461); experiment: as above; settings: biotinylated peptide
T2 construct: purchased Sigma-Aldrich
T2 sequence (P02461 154-1221 limits assumed): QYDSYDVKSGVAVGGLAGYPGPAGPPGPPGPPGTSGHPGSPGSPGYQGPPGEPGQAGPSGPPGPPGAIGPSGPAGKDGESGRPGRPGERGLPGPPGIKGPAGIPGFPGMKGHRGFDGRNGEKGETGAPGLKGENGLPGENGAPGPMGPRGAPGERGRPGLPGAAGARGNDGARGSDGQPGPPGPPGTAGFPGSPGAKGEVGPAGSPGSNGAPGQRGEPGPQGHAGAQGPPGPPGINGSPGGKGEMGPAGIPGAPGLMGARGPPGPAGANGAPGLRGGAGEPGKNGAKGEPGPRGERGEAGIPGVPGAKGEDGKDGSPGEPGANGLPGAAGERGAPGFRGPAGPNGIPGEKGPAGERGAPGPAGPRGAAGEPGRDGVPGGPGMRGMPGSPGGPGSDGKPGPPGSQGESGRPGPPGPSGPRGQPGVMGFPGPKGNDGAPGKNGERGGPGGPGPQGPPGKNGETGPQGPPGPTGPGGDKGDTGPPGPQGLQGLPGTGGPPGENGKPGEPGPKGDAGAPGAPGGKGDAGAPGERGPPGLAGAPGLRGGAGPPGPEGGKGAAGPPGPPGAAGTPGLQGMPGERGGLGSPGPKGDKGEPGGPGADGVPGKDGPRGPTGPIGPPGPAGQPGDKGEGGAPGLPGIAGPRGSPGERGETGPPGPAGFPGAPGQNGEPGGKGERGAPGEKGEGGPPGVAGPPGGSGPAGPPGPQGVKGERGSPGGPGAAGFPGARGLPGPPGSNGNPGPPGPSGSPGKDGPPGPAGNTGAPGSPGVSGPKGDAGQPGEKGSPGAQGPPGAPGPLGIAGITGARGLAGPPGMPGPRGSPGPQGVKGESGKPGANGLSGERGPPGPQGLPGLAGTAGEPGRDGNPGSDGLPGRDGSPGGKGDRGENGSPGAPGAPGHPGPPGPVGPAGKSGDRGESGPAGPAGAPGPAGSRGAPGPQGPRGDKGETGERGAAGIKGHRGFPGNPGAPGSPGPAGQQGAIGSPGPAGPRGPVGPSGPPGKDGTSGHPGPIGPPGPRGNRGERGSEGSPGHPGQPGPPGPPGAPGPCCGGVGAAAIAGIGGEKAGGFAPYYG
Protocol: as §1

collagen IV = collagen IV (Mus musculus, UniProt P02463+P08122); experiment: as above; design: purchased Sigma-Aldrich; settings: 1000 μM biotinylated peptide; relative to background fluorescence at 0 μM
Sequence of collagen IV (P02463 173-1669): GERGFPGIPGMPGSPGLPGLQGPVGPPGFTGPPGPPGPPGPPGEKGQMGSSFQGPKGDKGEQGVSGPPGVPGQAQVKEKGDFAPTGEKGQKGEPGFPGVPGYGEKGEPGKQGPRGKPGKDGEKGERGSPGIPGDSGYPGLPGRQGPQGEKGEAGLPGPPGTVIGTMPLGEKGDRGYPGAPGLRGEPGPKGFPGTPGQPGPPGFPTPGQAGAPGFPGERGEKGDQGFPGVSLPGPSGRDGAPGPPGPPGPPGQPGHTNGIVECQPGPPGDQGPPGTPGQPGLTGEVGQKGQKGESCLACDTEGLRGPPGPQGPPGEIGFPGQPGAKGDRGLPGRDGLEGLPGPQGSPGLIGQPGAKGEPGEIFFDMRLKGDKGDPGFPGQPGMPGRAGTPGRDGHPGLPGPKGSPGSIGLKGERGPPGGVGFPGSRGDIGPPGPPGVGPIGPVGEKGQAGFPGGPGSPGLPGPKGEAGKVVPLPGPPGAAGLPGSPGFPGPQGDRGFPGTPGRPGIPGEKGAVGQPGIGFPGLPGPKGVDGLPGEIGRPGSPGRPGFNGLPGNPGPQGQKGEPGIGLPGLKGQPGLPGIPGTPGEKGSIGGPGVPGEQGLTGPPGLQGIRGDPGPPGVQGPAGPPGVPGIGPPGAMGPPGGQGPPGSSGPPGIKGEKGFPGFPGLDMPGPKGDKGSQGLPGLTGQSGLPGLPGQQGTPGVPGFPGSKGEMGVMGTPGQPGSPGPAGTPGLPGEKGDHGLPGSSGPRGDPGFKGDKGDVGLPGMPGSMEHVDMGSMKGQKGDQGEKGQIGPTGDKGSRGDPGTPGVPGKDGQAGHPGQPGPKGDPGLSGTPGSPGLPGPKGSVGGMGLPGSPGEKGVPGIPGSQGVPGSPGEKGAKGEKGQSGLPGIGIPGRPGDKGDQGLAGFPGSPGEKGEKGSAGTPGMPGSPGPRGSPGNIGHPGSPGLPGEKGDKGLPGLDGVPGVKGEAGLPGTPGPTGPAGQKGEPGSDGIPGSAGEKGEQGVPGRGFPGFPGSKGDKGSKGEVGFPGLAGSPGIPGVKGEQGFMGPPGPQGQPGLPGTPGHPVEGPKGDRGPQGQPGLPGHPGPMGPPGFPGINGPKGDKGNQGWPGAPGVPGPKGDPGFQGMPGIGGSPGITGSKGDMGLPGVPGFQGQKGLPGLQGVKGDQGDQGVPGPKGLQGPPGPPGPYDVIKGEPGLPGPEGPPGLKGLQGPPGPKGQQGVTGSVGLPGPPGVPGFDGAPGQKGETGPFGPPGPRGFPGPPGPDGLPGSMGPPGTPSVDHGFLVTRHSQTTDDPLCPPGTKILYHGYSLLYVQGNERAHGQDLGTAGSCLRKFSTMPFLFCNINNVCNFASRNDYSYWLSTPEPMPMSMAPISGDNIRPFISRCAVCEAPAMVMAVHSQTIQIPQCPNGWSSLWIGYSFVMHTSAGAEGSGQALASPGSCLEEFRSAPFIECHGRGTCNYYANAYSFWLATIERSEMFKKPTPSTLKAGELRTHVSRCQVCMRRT
Sequence of collagen IV (P08122 184-1707): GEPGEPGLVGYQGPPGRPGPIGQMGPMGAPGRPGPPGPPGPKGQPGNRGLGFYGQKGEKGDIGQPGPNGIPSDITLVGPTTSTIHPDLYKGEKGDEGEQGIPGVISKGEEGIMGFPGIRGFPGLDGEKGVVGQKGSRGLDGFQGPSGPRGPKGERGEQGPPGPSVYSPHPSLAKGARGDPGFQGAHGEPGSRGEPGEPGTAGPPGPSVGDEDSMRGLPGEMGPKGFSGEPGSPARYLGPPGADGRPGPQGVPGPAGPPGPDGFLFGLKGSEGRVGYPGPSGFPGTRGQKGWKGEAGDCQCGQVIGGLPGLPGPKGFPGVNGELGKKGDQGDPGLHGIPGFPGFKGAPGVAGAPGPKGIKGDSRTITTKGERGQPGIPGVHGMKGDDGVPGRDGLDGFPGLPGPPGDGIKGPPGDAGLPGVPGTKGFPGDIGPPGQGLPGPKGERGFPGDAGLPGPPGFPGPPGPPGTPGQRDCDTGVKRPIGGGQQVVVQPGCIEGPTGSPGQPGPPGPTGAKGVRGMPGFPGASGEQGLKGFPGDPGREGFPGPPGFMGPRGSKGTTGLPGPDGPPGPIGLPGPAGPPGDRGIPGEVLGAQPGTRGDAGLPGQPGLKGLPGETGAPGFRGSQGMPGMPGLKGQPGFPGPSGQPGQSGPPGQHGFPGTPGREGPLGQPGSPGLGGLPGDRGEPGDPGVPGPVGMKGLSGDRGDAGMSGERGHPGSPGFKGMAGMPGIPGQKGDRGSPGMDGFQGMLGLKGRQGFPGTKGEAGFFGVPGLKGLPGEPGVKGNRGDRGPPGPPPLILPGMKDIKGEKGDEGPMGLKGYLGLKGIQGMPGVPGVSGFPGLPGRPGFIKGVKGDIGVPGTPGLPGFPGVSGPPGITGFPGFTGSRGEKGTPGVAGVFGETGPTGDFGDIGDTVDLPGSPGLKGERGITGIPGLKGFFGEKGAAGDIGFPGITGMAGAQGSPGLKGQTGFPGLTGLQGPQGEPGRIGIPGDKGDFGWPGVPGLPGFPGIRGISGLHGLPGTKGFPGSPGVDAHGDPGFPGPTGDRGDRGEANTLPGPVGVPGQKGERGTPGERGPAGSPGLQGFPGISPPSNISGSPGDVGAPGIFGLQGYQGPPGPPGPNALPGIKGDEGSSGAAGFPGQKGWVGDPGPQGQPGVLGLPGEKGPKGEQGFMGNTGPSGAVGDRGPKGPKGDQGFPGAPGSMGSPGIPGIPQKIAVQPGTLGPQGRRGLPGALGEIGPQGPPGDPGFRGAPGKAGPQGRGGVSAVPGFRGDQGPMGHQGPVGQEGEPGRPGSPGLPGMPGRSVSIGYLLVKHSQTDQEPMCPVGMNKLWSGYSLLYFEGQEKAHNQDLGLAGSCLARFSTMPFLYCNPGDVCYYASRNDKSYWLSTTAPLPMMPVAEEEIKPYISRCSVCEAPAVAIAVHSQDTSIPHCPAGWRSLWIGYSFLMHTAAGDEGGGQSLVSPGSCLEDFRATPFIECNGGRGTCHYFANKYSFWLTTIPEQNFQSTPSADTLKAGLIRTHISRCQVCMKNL
Protocol: as §1

[1] = tested on: Human umbilical vein endothelial cells (HUVECs); experiment: Endothelial cell adhesion and retention on modified ECM; assay type: cell-based; settings: 4 weeks (day 28) in culture
Protocol: Addition of Endothelial Cells to Modified ECM. Human umbilical vein endothelial cells (HUVECs, Lonza) at passages 3-8 were cultured in EGM-2 and used for cell seeding. The following groups of ECM vascular grafts (1 cm in length each, n=3 per group) were prepared: (1) ECM control alone without heparin or peptide; (2) ECM incubated with free, unconjugated heparin sodium (1 mg/mL); (3) ECM incubated with CBPi conjugated to heparin (1 mg/mL); and (4) ECM incubated with CBP conjugated to heparin (1 mg/mL). HUVECs were seeded twice onto the lumen of each graft (10000 cells/cm^2 at each inoculation) with a 180° rotation of the graft at 30 min after initial seeding. Recellularized grafts were maintained in culture under static condition with medium changed every 2 days.
Cell Number and Viability Measurement. Resazurin was used to assess cell number and viability of HUVECs on ECM grafts over time. 16 Resazurin sodium (44 μM in EGM-2) was added to cell-laden, ECM-modified grafts and incubated for 2 h and the fluorescence intensity (Ex 560 nm, Em 590 nm) was read. The number of cells was calculated based on the fluorescence reading of serially diluted HUVEC suspensions incubated in resazurin solution to develop a standard curve. Prior to performing each measurement, cell seeded grafts were moved to a new low-attachment, multiwell plate to eliminate off target readings from cells that may have migrated off the graft.
Cell Staining and Fluorescence Microscopy. At 4 weeks after cell seeding, each cell-seeded graft was fixed with paraformaldehyde and stained with Phalloidin-488. Fluorescence microscopy (Nikon TE2000U, Japan) was performed on the flattened luminal surface of the graft.

collagen I = target: T3, collagen I (Rattus norvegicus, UniProt P02454+P02466); experiment: Peptide binding to ECM protein coated plates (streptavidin-594 fluorescence); settings: biotinylated peptide
T3 construct: purchased Sigma-Aldrich
T3 sequence (P02454 152-1207 limits assumed): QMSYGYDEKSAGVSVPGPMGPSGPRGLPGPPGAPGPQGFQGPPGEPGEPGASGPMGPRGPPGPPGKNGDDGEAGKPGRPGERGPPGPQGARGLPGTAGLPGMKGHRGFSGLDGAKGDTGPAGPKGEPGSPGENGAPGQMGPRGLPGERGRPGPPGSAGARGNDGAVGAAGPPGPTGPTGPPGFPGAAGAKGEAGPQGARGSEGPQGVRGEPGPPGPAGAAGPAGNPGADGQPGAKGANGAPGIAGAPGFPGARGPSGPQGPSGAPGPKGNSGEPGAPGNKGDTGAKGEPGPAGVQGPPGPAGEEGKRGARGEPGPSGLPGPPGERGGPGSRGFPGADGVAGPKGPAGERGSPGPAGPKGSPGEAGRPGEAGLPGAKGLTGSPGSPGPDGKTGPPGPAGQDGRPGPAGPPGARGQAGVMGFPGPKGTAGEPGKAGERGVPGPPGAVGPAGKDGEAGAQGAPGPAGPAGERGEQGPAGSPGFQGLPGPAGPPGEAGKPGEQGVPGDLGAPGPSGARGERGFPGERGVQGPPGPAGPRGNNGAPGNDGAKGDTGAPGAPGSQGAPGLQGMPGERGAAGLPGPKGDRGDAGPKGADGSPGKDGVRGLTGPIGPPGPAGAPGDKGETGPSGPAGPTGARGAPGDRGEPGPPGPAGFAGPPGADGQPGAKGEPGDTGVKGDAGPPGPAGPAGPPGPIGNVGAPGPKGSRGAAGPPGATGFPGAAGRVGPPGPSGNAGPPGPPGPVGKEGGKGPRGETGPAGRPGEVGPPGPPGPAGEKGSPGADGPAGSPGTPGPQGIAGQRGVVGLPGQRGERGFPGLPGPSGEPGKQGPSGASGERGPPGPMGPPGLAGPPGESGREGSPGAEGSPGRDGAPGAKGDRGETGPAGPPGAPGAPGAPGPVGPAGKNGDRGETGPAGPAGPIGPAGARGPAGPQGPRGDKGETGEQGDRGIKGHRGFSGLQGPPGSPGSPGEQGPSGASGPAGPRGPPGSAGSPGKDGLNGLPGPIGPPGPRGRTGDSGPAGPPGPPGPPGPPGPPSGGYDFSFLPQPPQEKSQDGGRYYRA
T3 sequence (P02466 86-1125 limits assumed): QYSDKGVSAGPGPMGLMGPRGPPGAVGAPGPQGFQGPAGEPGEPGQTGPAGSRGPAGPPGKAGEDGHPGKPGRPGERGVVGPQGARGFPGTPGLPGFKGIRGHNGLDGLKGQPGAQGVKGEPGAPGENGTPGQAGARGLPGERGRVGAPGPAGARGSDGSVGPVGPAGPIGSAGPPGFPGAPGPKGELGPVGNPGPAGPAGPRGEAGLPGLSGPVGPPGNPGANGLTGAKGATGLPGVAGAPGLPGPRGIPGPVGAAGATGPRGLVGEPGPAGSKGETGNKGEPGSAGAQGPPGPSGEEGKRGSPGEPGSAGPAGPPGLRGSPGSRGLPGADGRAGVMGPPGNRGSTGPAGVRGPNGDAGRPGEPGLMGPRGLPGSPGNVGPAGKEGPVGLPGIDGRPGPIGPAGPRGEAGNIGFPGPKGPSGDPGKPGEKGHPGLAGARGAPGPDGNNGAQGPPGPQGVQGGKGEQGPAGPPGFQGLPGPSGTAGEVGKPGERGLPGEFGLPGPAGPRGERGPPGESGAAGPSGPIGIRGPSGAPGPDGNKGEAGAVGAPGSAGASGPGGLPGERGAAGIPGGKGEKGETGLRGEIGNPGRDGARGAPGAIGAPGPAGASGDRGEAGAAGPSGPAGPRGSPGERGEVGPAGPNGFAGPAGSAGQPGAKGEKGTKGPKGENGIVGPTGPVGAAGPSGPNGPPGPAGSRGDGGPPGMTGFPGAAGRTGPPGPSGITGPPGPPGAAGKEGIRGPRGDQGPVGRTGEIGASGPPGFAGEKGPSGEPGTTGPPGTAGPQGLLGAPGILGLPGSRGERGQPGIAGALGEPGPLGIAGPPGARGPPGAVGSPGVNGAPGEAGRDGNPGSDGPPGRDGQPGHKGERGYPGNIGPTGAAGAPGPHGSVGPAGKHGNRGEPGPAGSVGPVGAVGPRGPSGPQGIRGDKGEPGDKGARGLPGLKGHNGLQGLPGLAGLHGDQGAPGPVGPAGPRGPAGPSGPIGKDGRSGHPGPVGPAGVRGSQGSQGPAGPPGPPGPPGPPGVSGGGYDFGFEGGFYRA
Protocol: as §1

[2] = tested on: collagen I and collagen IV in decellularized rat aorta ECM and renal ECM; experiment: Streptavidin-594 staining of biotinylated CBP on decellularized tissue; assay type: binding; settings: biotinylated CBP at 100 μM
From the text: FIG. 7: Immunofluorescence staining of collagen I and collagen IV in decellularized rat aorta ECM (A) and renal ECM (C). Streptavidin-594 staining of biotinylated CBP on decellularized rat aorta ECM (B) and renal ECM (D). Scale bar=100 μm.
The binding between collagens (types I and IV) and CBP, is predicted to be mediated by intermolecular forces between discrete amino acids within collagen and CBP^17 that contribute to the binding specificity observed above. The molecular composition of ECM is largely heterogeneous, including fibrous proteins such as collagens, soluble proteins such as fibronectin and laminin, and proteoglycans such as heparan sulfate, keratin sulfate, and chondroitin sulfate.^18 The detailed composition of ECM proteins also varies from tissue to tissue, however, ECM from most tissue types contains collagen I (interstitial matrix) and collagen IV (basement membrane).^18 Each collagen subtype is retained in decellularized tissues, specifically vascular (FIG. 7A) and renal tissues (FIG. 7C). […] Taken together, this delivery strategy using CBP as a localizing moiety specifically targets collagens (type IV in particular) and may be used to selectively carry bioactive molecules to the vasculature where collagen IV defines the subendothelial basement membrane that forms the vascular network, including the macro- and micro-vasculatures within all tissues and organs.

factor Xa = settings: unconjugated heparin sodium; cited from earlier work
[3] = tested on: recalcified porcine blood; experiment: Clot formation of recalcified whole blood on ECM grafts
Protocol: Clot Formation of Recalcified Whole Blood. A recalcified whole blood clotting assay was performed to assess hemocompatibility of ECM grafts treated with or without the addition of heparin, alone or conjugated to CBP/CBPi.^15 Briefly, […] Each sample was weighed before and after incubation with recalcified blood, and the mass of the blood clotted on each sample was calculated and normalized to the weight of the ECM. Each sample containing clotted blood was subsequently embedded in paraffin, sectioned and stained with H&E for microscopic analysis.

rat aorta ECM = experiment: Heparin deposited and retained on aorta ECM (DMMB GAG assay); assay type: binding; settings: immediately after treatment at 1 mg/mL (t=0)
Protocol: Heparin Immobilization onto Rat Aorta ECM. All animal experiments and procedures were approved by the Animal Care and Use Committee of Northwestern University and animal care was performed in accordance with the NIH Guide for Care and Use of Laboratory Animals. Male Sprague-Dawley rats weighing 200-250 g (Charles River Laboratories, Chicago, IL) were used as donors to recover the abdominal segment of the aorta. Rat aorta ECM was isolated via decellularization as described 13 using 1% Triton X for 48 h and 1.5% SDS for 48 h at room temperature, followed by 100 U/mL DNase I solution at 37° C. for 4 h. Aorta ECM was subsequently incubated with heparin sodium, CBP-conjugated heparin or CBPi-conjugated heparin (1 mg/mL) overnight at 4° C., followed by three washes with PBS to remove excessive and unbound heparin (FIG. 1B). ECM without heparin incubation served as negative, untreated controls.
Quantification of Heparin Deposited onto ECM. The amount of heparin immobilized onto aorta ECM was quantified using a GAG assay. […] Retention of heparin on ECM after CBP-heparin treatment was assessed by incubating heparinized ECM in endothelial growth medium (EGM-2, Lonza) at 37° C. and measuring the amount of heparin remaining on ECM weekly using a GAG assay. […]

[4] = target: T4, vascular endothelial growth factor, VEGF (Homo sapiens, UniProt P15692); experiment: Growth factor binding to modified ECM (VEGF ELISA); settings: after incubation in EGM-2 for 3 days
T4 construct: purchased Lonza (component of EGM-2 medium)
T4 sequence (P15692 27-191 isoform P15692-4): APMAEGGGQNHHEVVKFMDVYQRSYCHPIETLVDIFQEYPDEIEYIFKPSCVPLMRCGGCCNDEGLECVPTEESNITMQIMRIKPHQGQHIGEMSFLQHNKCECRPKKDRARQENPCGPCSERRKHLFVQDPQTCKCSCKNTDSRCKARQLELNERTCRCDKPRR
Protocol: Growth Factor Binding to Modified ECM. ECM samples treated with PBS alone, heparin alone, CBPi-heparin, or CBP-heparin were incubated in EGM-2 (containing 2 ng/mL recombinant human vascular endothelial growth factor, VEGF) for 3 days and washed with PBS to measure the degree of VEGF recruited to heparin modified ECM. ECM grafts before and after EGM-2 incubation were weighed and proteins were extracted as previously described using a urea buffer. 13 The amount of VEGF was measured using an ELISA for human and rat VEGF (Thermo Fisher, Waltham, MA).

rat platelet rich plasma = experiment: Platelet adhesion to modified ECM (LDH assay); assay type: cell-based; settings: ECM treated at 1 mg/mL
Protocol: Platelet Adhesion. The thrombogenic properties of modified ECM were evaluated by a platelet adhesion assay described previously.^13 ECM grafts were incubated in diluted rat platelet rich plasma ([…] platelet/mL) at 37° C. for 1 h, rinsed with warm PBS, and lysed with 2% Triton-X. Lactate dehydrogenase (LDH) released into the medium was measured by an LDH assay following the manufacturer's protocol (Roche Molecular Diagnostics, Pleasanton, CA). LDH measured from lysates of serially diluted platelets standardized the assay to quantify the concentration of deposited platelet on ECM.

| Substance | binding to fibronectin (fibronectin) | binding to collagen II (collagen II) | binding to Matrigel (Matrigel) | binding to laminin (laminin) | binding to collagen III (collagen III) | increase in surface fluorescence intensity on collagen IV coated surface (collagen IV) | adherent endothelial cells on ECM grafts [1] | adherent endothelial cells on ECM grafts ([1]; listed as BCPi) | binding to collagen I coated surfaces (collagen I) | colocalization with collagens in decellularized vascular and renal tissue [2] | anti-Factor Xa activity of reference standard (factor Xa) [U/mg] | blood clots observed on ECM grafts (H&E) ([3]; decellularized vascular ECM grafts) | mass of clot/mass of ECM×100% ([3]; treated ECM with recalcified blood, 30 min point) [%] | glycosaminoglycan (heparin) content of ECM (rat aorta ECM) [μg GAG/mg ECM] | VEGF concentration within ECM grafts [4] [pg/mg ECM] | reduction in the number of adherent platelets compared to PBS-treated ECM (rat platelet rich plasma) [%] |
| --- | --- | --- | --- | --- | --- | --- | --- | --- | --- | --- | --- | --- | --- | --- | --- | --- |
| CDEFQRSTTY [CBPi] | Neither CBP nor CBPi binds | Neither CBP nor CBPi binds | minimal, through significant, levels of binding | minimal, through significant, levels of binding | Neither CBP nor CBPi binds | did not result in any increase | did not preserve endothelial cell adhesion | Minimal to no cells remain | – | – | – | – | – | – | – | – |
| CQDSETRTFY (not fully specified; also: biotin, place not given here; listed as Homo sapiens) [CBP] | Neither CBP nor CBPi binds | Neither CBP nor CBPi binds | minimal, through significant, levels of binding | minimal, through significant, levels of binding | Neither CBP nor CBPi binds | – | did not preserve endothelial cell adhesion; also recorded: Minimal to no cells remain | – | to a much lesser extent | colocalized with each subtype but was more prominent around collagen IV | – | – | – | – | – | – |
| Heparin sodium | – | – | – | – | – | – | decreased significantly | – | – | – | 200 | Thick blood clots | 612.1±126.0 | 2.81±0.19 | 46.5±12.1 | 5.7±6.2 |
